Patent publication US11358985B2, “Tripeptide compound, preparation method therefor, and application thereof” (NORTHWEST UNIVERSITY, priority 2014, dated 2022)

Legend:
[1] = biological target: angiotensin-converting enzyme (ACE) (UniProt P12822); type: biochemical; conditions: substrate HHL, 37° C., pH 8.3, hippuric acid at 228 nm
mouse ACE = assay: In vivo ACE activity test: ACE content in kidney tissue by double antibody sandwich ELISA; parameters: species or system Kunming mice; conditions: for ACE content: male Kunming mice, kidney homogenate, intragastric 0.05 mmol/kg once a day for 7 days, 2 h after final dose
[2] = tested on: spontaneously hypertensive rats (SHR); assay: Blood pressure in SHR rats after one administration (tail pulse indirect pressure measurement); type: in vivo, rat
Protocol: (§1) SPF grade male spontaneously hypertensive model rats (SHR) (male, 12 weeks old, body weight 200 g±20 g) were divided into three groups: blank group, control group and sample group, with 6 rats each group. Animals were housed in the Shaanxi Provincial Biomedical Animal Laboratory at the School of Life Sciences of Northwest University at a temperature of 22° C. and a humidity of 50%, with 12 hours light/dark cycle and free to eat and drink water. The SHR rats were trained to adapt to blood pressure measurements after 5 days of adaptation to the environment. Prior to administration, the basal blood pressure of the rats in each group was measured and the systolic blood pressure was between 190±5 mmHg.
The systolic blood pressure of the experimental rats was measured by tail pulse indirect pressure measurement. […]
The particular measurement steps: the conscious rats were placed in the fixed box of the blood pressure meter. A heating plate at 30° C. was provided in the bottom of the fixed box, which was preheated for 10 min to expand the local blood vessels. […] After the signal was stabilized, the blood pressure was measured and the 5 readings with a change in blood pressure less than 10 mmHg were recorded, with an interval of 10 seconds. […]

[3] = tested on: spontaneously hypertensive rats (SHR); assay: Blood pressure in SHR rats after multiple administrations; type: in vivo, rat
Protocol: as §1
The particular measurement steps: the conscious rats were placed in the fixed box of the blood pressure meter. […] After the signal was stabilized, the blood pressure was measured and the 5 readings with a change in blood pressure less than 10 mmHg were recorded, with an interval of 10 seconds. […]
According to the above method and dose, rats were administered intragastrically continuously for 7 days, once a day. Blood pressure was measured 2 hours after administration. After the end of the administration, blood pressure was measured continuously for 7 days, once a day, and the change in blood pressure was recorded.

Chain of angiotensin-converting enzyme (ACE) (P12822 whole entry): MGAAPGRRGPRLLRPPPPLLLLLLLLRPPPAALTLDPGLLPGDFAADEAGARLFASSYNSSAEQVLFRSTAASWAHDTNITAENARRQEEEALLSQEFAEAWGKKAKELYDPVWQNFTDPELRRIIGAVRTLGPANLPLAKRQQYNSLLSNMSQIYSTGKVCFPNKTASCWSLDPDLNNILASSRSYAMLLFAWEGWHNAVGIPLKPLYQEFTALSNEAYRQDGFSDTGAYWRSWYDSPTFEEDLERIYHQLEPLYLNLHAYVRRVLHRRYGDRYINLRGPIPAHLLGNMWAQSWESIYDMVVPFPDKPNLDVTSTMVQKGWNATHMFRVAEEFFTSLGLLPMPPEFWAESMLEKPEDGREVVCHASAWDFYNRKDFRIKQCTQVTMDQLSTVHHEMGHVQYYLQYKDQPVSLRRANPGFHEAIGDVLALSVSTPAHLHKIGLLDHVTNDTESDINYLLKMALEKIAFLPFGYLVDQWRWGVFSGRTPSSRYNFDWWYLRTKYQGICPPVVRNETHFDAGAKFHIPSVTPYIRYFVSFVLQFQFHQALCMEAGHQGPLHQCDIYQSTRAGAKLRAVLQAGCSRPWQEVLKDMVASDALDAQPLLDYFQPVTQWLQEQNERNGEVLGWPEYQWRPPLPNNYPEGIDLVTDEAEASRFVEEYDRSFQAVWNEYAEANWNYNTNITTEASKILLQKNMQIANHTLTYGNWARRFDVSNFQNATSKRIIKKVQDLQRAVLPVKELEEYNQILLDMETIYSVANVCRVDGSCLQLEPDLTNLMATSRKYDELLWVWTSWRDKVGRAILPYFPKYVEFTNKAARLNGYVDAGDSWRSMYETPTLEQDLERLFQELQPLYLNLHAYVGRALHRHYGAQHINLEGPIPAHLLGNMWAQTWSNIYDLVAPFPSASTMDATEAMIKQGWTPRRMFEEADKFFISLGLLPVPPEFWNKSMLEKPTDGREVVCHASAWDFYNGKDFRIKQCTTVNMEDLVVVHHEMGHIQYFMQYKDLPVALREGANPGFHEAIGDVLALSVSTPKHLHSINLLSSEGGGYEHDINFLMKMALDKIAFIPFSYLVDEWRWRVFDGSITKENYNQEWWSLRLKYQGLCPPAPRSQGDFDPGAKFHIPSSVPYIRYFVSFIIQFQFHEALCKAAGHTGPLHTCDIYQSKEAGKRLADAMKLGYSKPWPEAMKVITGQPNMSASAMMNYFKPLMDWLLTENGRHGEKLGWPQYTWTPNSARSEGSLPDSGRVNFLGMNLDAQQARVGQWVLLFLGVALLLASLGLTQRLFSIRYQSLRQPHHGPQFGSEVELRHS

SMILES	IC50 [1] [nM]	ACE content (mouse ACE) [pg/mL]	other results
CC1(C)C2CCC1(C)C(OC(=O)[C@@H]1CCCN1C(=O)CNC(=O)[C@H](O)Cc1ccc(O)c(O)c1)C2 (stereo partly drawn) [Compound 221S-15a]	33 ± 6	83 ± 11	
C[C@H](NC(=O)[C@H](O)Cc1ccc(O)c(O)c1)C(=O)N1CCC[C@H]1C(=O)OC1CC2CCC1(C)C2(C)C (stereo partly drawn) [Compound 221S-1a]	23 ± 9	64 ± 8	reduction of ACE content compared with captopril (in words) (mouse ACE; intragastric 0.05 mmol/kg, 7 days, summary of Table 8): most significant reduction effect; dose dependence of antihypertensive effect ([2]; single intragastric administration at different doses, within 6 hours (FIG. 3)): good dose-dependent relationship; antihypertensive effect (arterial systolic pressure) compared with captopril ([2]; single intragastric administration, within 6 hours (FIG. 2, 3)): antihypertensive effect was better than that of captopril; dose dependence of effect on arterial systolic pressure ([3]; 7 days intragastric at different doses, 14 days (FIG. 5)): dose-dependent; antihypertensive effect (arterial systolic pressure) compared with captopril ([3]; intragastric once a day for 7 days, followed over 14 days (FIG. 4)): better antihypertensive effect than captopril
C[C@H](NC(=O)c1cc(O)c(O)c(O)c1)C(=O)N1CCC[C@H]1C(=O)OC1CC2CCC1(C)C2(C)C (stereo partly drawn) [Compound 221S-31a]	31 ± 8	71 ± 13	
CCC(C)[C@H](NC(=O)[C@H](O)Cc1ccc(O)c(O)c1)C(=O)N1CCC[C@H]1C(=O)OC1CC2CCC1(C)C2(C)C (stereo partly drawn) [Compound 221S-4a]	34 ± 7	82 ± 10	
C[C@H](NC(=O)c1ccc(O)c(O)c1)C(=O)N1CCC[C@H]1C(=O)OC1CC2CCC1(C)C2(C)C (stereo partly drawn) [Compound 221S-30a]	35 ± 6	75 ± 8	
CSCC[C@H](NC(=O)[C@H](O)Cc1ccc(O)c(O)c1)C(=O)N1CCC[C@H]1C(=O)OC1CC2CCC1(C)C2(C)C (stereo partly drawn) [Compound 221S-7a]	78 ± 5	71 ± 9	
CC1(C)C2CCC1(C)C(OC(=O)[C@@H]1CCCN1C(=O)[C@@H]1CCCN1C(=O)[C@H](O)Cc1ccc(O)c(O)c1)C2 (stereo in doubt) [Compound 221S-6a]	43 ± 6	76 ± 5	
C[C@H](NC(=O)Cc1ccc(O)c(O)c1)C(=O)N1CCC[C@H]1C(=O)OC1CC2CCC1(C)C2(C)C (stereo partly drawn) [Compound 221S-29a]	38 ± 5	85 ± 8	
CC(C)(C)[C@H](NC(=O)[C@H](O)Cc1ccc(O)c(O)c1)C(=O)N1CCC[C@H]1C(=O)OC1CC2CCC1(C)C2(C)C (stereo partly drawn) [Compound 221S-5a]	28 ± 9	89 ± 11	
CC(C)[C@H](NC(=O)[C@H](O)Cc1ccc(O)c(O)c1)C(=O)N1CCC[C@H]1C(=O)OC1CC2CCC1(C)C2(C)C (stereo partly drawn) [Compound 221S-2a]	37 ± 5	87 ± 8	
COc1cc(/C=C/C(=O)N[C@@H](C)C(=O)N2CCC[C@H]2C(=O)OC2CC3CCC2(C)C3(C)C)ccc1O (stereo partly drawn) [Compound 221S-27a]	44 ± 3	82 ± 11	
C[C@H](NC(=O)/C=C/c1ccc(O)c(O)c1)C(=O)N1CCC[C@H]1C(=O)OC1CC2CCC1(C)C2(C)C (stereo partly drawn) [Compound 221S-28a]	29 ± 7	79 ± 8	
C[C@H](NC(=O)[C@@H](O)Cc1ccc(O)c(O)c1)C(=O)N1CCC[C@H]1C(=O)OC1CC2CCC1(C)C2(C)C (stereo partly drawn) [Compound 221S-1b]	33 ± 6	78 ± 12	
CC1(C)C2CCC1(C)C(OC(=O)[C@@H]1CCCN1C(=O)[C@H](Cc1ccccc1)NC(=O)[C@H](O)Cc1ccc(O)c(O)c1)C2 (stereo partly drawn) [Compound 221S-8a]	65 ± 5	80 ± 7	
CC(C)C[C@H](NC(=O)[C@H](O)Cc1ccc(O)c(O)c1)C(=O)N1CCC[C@H]1C(=O)OC1CC2CCC1(C)C2(C)C (stereo partly drawn) [Compound 221S-3a]	27 ± 7	79 ± 7	
